Assay type in all cases: cell-based
For series [1], the system named is SARS-CoV-2 (BA.2). Put plainly: microbe, parasite or virus in culture. The settings on record: for EC50: 48 h, mean from three parallel experiments, read-out: Inhibition of SARS-CoV-2 Viruses (EC50/μM).
Series [2] has as its system HEK 293T-hACE2 cells. Put plainly: Cell viability assay (MTT method). Particulars: at 80 μM, 293T cells. As to the method:
(§1) […] Tested cell lines were cultured in Dulbecco’s modified Eagle’s medium (DMEM) (Invitrogen, Carlsbad, CA, USA) supplemented with 5% fetal bovine serum (Hyclone, Logan, UT, USA), 2 mM L-glutamine, […] streptomycin, and 100 units/mL penicillin (Invitrogen). The cultures were maintained at 37 °C in a humidified atmosphere of 5% CO2.
A general note: Formazan colour is commonly taken as a measure of viable cells.

Series [3] is described as follows: Cell viability assay (MTT method). The settings on record: human. As to the method: as §1
[4] abbreviates: Severe acute respiratory syndrome coronavirus 2, HEK-293T, […].
[5] abbreviates: 293T cell, MTT, mean from three parallel experiments, read-out: Cytotoxicity for 293T Cell (IC50/μM).

The structures appear in SMILES notation. Like-named read-outs stand apart in the source and are kept apart here. Where only a bound is given, the exact number is not on record here.

In the case of `CC=CC=CC(O)=C1C(=O)C2(C)C(=O)C(C)(O)C1C(C1(C)OC(=O)C(C)=C1O)C2C(=O)C=CC=CCO` (stereo not drawn) [Compound 2, 20-hydroxybislongiquinolide], in series [1] (setting [4]), the EC50 came to 29 µM. Further, the cytotoxicity result in series [2] is recorded as “without cytotoxicity”. Moreover, the IC50 in series [3] (setting [5]) is over 80 µM.
Consider `CCC(CC)COC(=O)[C@H](C)N[P@](=O)(OC[C@H]1O[C@@](C#N)(c2ccc3c(N)ncnn23)[C@H](O)[C@@H]1O)Oc1ccccc1` [Remdesivir, reference compound], for which the EC50 in series [1] (setting [4]) was determined as 1.2 µM. The IC50 is 1.2 µM in series [1] (Severe acute respiratory syndrome coronavirus 2, HEK-293T, […], read-out: IC50 (positive control, SARS-CoV-2 assay)) and over 80 µM in series [3].
Turning to `CC=CC=CC(=O)C1C(C2(C)OC(=O)C(C)=C2O)C2C(=C(O)C=CC=CCO)C(=O)C1(C)C(=O)C2(C)O` (stereo not drawn) [Compound 1, 14-hydroxybislongiquinolide], the “antiviral activity against SARS-CoV-2” value in series [1] is recorded as “no activity”. In addition, in series [1] (setting [4]), the EC50 was over 80 µM. The IC50 in series [3] (setting [5]) was over 80 µM.
As for `CC1=C(O)C(C)(C2C3C(=C(O)C=CC=CCO)C(=O)C(C)(C(=O)C3(C)O)C2C(=O)C=CC=CCO)OC1=O` (stereo not drawn) [Compound 3, 14, 20-dihydroxybislongiquinolide], in series [1], the “antiviral activity against SARS-CoV-2” value is given as “no activity”. Moreover, the EC50 in series [1] (setting [4]) is over 80 µM. Further, in series [3] (setting [5]), the IC50 is over 80 µM.
As for `CC(=O)Oc1cc(/C=C/C=C/C(=O)O)oc(=O)c1C` [Compound 5, Acetylchrysopyrone B], in series [1], the “antiviral activity against SARS-CoV-2” value is on record as “no activity”. The EC50 in series [1] (setting [4]) is over 80 µM. Also, the IC50 in series [3] (setting [5]) is over 80 µM.

Values taken from PMC10455806, “New Sorbicillinoids from the Mangrove Endophytic Fungus Trichoderma reesei SCNU-F0042” (Marine Drugs, 2023).
